Source: US20170246267A1, “CHOLINERGIC ANTAGONISM AS AN ADJUNCT TO CANCER THERAPY” (The Trustees of Columbia University in the City of New York, priority 2014, published 2017)
Entries after “also recorded” stand apart in the source; their conditions may differ. Starred links: 1 amine or outer side, 2 acyl side, 3 side chain; linkers in the order of their positions; H or OH if unused. Positions of bridges follow the written chain, without caps; N, C: chain ends. Non-standard residues stand in square brackets, D forms with d. Residues, ends and D or L forms follow the SMILES beside them. X1 = CC(=O)NC(C(=O)OC(C(C)C)C(N[*:1])C(=O)[*:2])C(O)C(C)C; PhLac = O=C(O)[CH](O)Cc1ccccc1; NMeT = CN[CH](C(=O)O)[CH](C)O; NMeA = CN[CH](C)C(=O)O; NMeDha = C=C(NC)C(=O)O

Experiments:
[1] = system: Dclk1-CreERT; R26-DTA mice; settings: mouse, in vivo
[2] = Bethanechol and response to 15 Gy abdominal irradiation (AIR); assay type: in vivo, mouse
[3] = system: DSS-colitis; experiment: Bethanechol in drinking water in DSS-colitis; assay type: in vivo, mouse
[4] = system: TMK1 gastric cancer cell line; experiment: YAP immunoblotting in TMK1 gastric cancer cell line; assay type: cell-based, human; design: changes of YAP phosphorylation after carbachol stimulation: dose or concentration left out as unconfirmed
Description: (§1) Similarly, carbachol treatment in Apc-deleted gastric organoids reduced the level of phosphorylated YAP (FIG. 51G). […] Next a human M3R gene-expressing construct was transfected into the M3R-negative AGS cell line. Overexpression of M3R decreased the level of phosphorylated YAP in a Gq-dependent manner, and activated the transcriptional activity of YAP in a luciferase assay (Dupont et al., 2011) (FIGS. 45B, 45C, and 52A).
(§2) Protein lysates were prepared from cells, separated by sodium dodecyl sulfate-polyacrylamide gel electrophoresis (SDS-PAGE), transferred to polyvinylidene difluoride membranes (Millipore). The membrane was probed with primary antibodies (phospho-YAP (Cell Signaling, 1:1000), YAP (Cell Signaling, 1:1000, and β-actin (Sigma, 1:5000) antibodies), and then incubated with the secondary antibody. Immunocomplexes were detected using the enhanced chemiluminescence system (Amersham Biosciences).
(§3) The human cancer cell lines were cultured in RPMI, DMEM, or Ham's F-12 medium supplemented with 10% fetal bovine serum, as described previously (Hayakawa et al., 2011).

[5] = system: gastric organoids; experiment: In vitro gastric organoid culture with or without neuron co-culture: organoid growth; assay type: cell-based, mouse
[6] = system: gastric organoids; experiment: Stem cell marker / Wnt target gene expression in gastric organoids (qRT-PCR); assay type: cell-based, mouse
[7] = system: INS-GAS mice; settings: mouse, in vivo
[8] = system: small cell lung cancer xenografts; settings: reference 50; cited from earlier work
[9] = system: INS-GAS mice; settings: mouse, in vivo; remark: listed apart in the source
[10] = system: gastric organoids; experiment: Ngf expression in cultured gastric organoids treated with carbachol; assay type: cell-based, mouse
Excerpt: In mouse gastric tumors, there was also a specific upregulation of Ngf (almost 20 times higher expression than the normal stomach), and such upregulation was not observed in any other neurotrophins (FIG. 40B). Similar upregulation of Ngf was found in mouse colorectal tumors induced by azoxymethane (AOM) and dextran sodium sulfate (DSS) (FIG. 47B). […] Immunostaining and in situ hybridization confirmed that NGF was expressed within the neoplastic epithelium rather than the stromal compartment (FIGS. 40D and 47C), a finding confirmed by cell sorting and subsequent qPCR (FIGS. 40E and 40F). MNU tumor-derived organoids that are cultured in isolation, separated from their native microenvironment, lost Ngf expression within 7 days. […] Therefore, ACh production, possibly from tuft cells initially but later from innervated nerves with axonogenesis, is at least partly responsible for the neoplastic upregulation of NGF.
The harvested mouse stomachs were opened longitudinally and washed with cold PBS. The tissue was chopped into approximately 5 mm pieces, washed with cold PBS, and incubated in 8 mM EDTA in PBS for 60 minutes on ice. The tissue fragments were suspended vigorously in cold 10% FBS using a 10-mL pipette, yielding supernatants enriched in crypts. Gland fractions were centrifuged at 900 rpm for 6 minutes at 4° C. and diluted with advanced DMEM/F12 (Invitrogen) containing B27, N2, 1 μM n-Acetylcysteine, 10 mM HEPES, penicillin/streptomycin, and Glutamax (all from Invitrogen). […]
Total RNA was extracted from whole stomach samples from each animal using TRIzol reagent (Invitrogen) or the RNAqueous-micro kit (Ambion) and subjected to first-strand complementary DNA synthesis using the Superscript III cDNA Amplification System (Invitrogen) following the manufacturer's instructions. qRT-PCR was performed using a three-step method, an ABI 7300 system and SYBR green (Roche). […] The results were expressed as the copy number of each gene relative to that of Gapdh or GAPDH.

[11] = system: Apc-deleted gastric organoids; experiment: YAP immunoblotting in Apc-deleted gastric organoids treated with carbachol; assay type: cell-based, mouse; settings: 1 mM carbachol for 7 days
Excerpt: as §1
The harvested mouse stomachs were opened longitudinally and washed with cold PBS. The tissue was chopped into approximately 5 mm pieces, washed with cold PBS, and incubated in 8 mM EDTA in PBS for 60 minutes on ice. The tissue fragments were suspended vigorously in cold 10% FBS using a 10-mL pipette, yielding supernatants enriched in crypts. […]
as §2

[12] = system: human cancer cells; experiment: NGF expression in human cancer cells treated with carbachol; assay type: cell-based; settings: TMK-1 cells, 10 mM carbachol for 24 hours
Excerpt: as §1
Total RNA was extracted from whole stomach samples from each animal using TRIzol reagent (Invitrogen) or the RNAqueous-micro kit (Ambion) and subjected to first-strand complementary DNA synthesis using the Superscript III cDNA Amplification System (Invitrogen) following the manufacturer's instructions. qRT-PCR was performed using a three-step method, an ABI 7300 system and SYBR green (Roche). The qRT-PCR primer sequences are available upon request. The results were expressed as the copy number of each gene relative to that of Gapdh or GAPDH.
as §3

[13] = after knockout of tuft cells, bethanechol in the drinking water

With CC(C[N+](C)(C)C)OC(N)=O (centres unmarked) [bethanechol] the “loss of proliferation in the stomach by Dclk1+ cell ablation” value [1] was “rescue this effect at least in part; also recorded: significantly rescued”, the survival ([2]; 15 Gy abdominal irradiation, bethanechol as a single agent immediately before or after the radiation) was “no significant overall impact” and the “appearance of the colon after radiation” value ([2]; both pre- and post-radiation treated mice) was “almost normal appearing”. For the same compound, the “improvement of histopathologic score for the colon compared to the controls” value ([2]; day +4 after radiation, both pre- and post-radiation treated mice) was over 65%, the “mucosal / intestinal regeneration” value ([3]; after ablation of Dclk1+ (tuft) cells, bethanechol in the drinking water) was “restored; also recorded: improve” and the proliferation [3, 13] was “improved”. For the same compound, the ulcer length [3, 13] was “reduction”, the DSS colitis ([3]; bethanechol-treated) was “Significant improvement” and the “proliferation (Ki67)” value ([3]; mouse, in vivo) was “increased”.

With “NGF: nerve growth factor, used to treat TMK-1 cells” the YAP activation ([4]; TMK-1 cells treated with NGF) was “did not cause”.

With CN1[C@@H]2C[C@@H](OC(=O)[C@H](CO)c3ccccc3)C[C@H]1[C@@H]1O[C@@H]12 [scopolamine] the “stimulatory effect of neuron co-culture on gastric organoid growth” value [5] was “inhibited”.

In the case of CC[C@@H]1C(=O)OC[C@@H]1Cc1cncn1C [pilocarpine], the organoid growth ([5]; relative number of organoids at day 10, 100 μM pilocarpine) is reported as “stimulated”, the “expression of Lgr5, Cd44, and Sox9” value ([6]; gastric organoids of M3KO mice) is reported as “no effects” and the “expression of gastric stem cell markers and Wnt target genes Lgr5, Cd44, and Sox9” value ([6]; organoids from WT mice, 10 or 100 μM, day 7, dose-dependent) is reported as “up-regulation”.

In the case of O=C1[O][Pt]2([NH][C@@H]3CCCC[C@H]3[NH]2)[O]C1=O [oxaliplatin], the tumor size [7] is reported as “no effect”.

In the case of O=c1[nH]cc(F)c(=O)[nH]1 [5-FU, 5-Fluorouracil], the tumor size [7] is reported as “no effect”.

For NC(=O)C(c1ccccc1)(c1ccccc1)[C@@H]1CCN(CCc2ccc3c(c2)CCO3)C1 [darifenacin], the “growth of small cell lung cancer xenografts” value [8] is listed as “inhibit” and the “cellular proliferation of the tumors” value [9] is listed as “reduced”.

With C=C1C(=O)NC(C)C(=O)N(C)C(C)C(=O)NC(C(OC(=O)C(NC(C)=O)C(O)C(C)C)C(C)C)C(=O)N(C)C(C(C)OC)C(=O)OC(C)C(NC(C)=O)C(=O)OC(Cc2ccccc2)C(=O)N1C (centres unmarked) [YM254890] (Ac-T[PhLac][NMeDha]A[NMeA][X1][NMeT](Me); ester 1-C; configuration not given here) the “changes of YAP phosphorylation after carbachol stimulation” value ([4]; pretreated with YM254890) was “blocked”.

With C[N+](C)(C)CCOC(N)=O [carbachol] the “level of phosphorylated YAP” value ([4]; 1 mM carbachol) was “reduced”, the “levels of total YAP” value ([4]; 1 mM carbachol) was “no significant changes” and the Ngf expression ([10]; MNU tumor-derived organoids cultured in isolation, day 7) was “upregulated; also recorded: partly reestablished”. For the same compound, the Ngf expression ([10]; gastric organoids from WT mice, carbachol for 7 days) was “upregulated”, the NGF expression ([10]; organoids from M3 Receptor Knockout (M3RKO) mice) was “no change” and the “level of phosphorylated YAP” value [11] was “reduced”. For the same compound, the NGF expression [12] was “significantly upregulated”.
